In ChEMBL document CHEMBL1201862, “PubChem BioAssay data set” (2004):
Structures can show the parent of a compound that is named as a salt. Active and inactive are the calls of the source.

Assays:
[1] = tested on: HeLa; experiment: viability loss in HeLa cells – cell-based, ATP luminescence, cherry-pick samples, cytotoxicity control, dose response (AID 687004); format: functional; details: Homo sapiens
[2] = tested on: HEK293; experiment: viability loss in HEK293T cells – cell-based, ATP luminescence, cherry-pick samples, cytotoxicity control, dose response (AID 687005); format: functional; details: Homo sapiens;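 note: cells exposed to compound for 48 hours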
[3] = HEK293 Cytotoxicity Assay Measured in Cell-Based System Using Plate Reader - 7071-01_Inhibitor_Dose_CherryPick_Activity_Set2.; format: functional
[4] = Late stage assay provider results from the probe development effort to identify inhibitors of the Plasmodium falciparum M18 Aspartyl Aminopeptidase (M18AAP): radiolabel-based cell-based dose response assay to identify compounds that inhibit P. falciparum growth in RBCs, Set 2..; format: functional
[5] = loss of viability in HepG2 cells – cell-based, CellTiter-Glo, cherry-picked, cytotoxicity control for Shn3 inhibitor project, dose response (AID 624134); format: functional
[6] = non-specific 3'UTR reporter inhibition in Clone20-Shn3RL – cell-based, Renilla luciferase, cherry-picked, counter-screen for Shn3 inhibitor project, dose response (AID 624133); format: functional
[7] = reduction of Shn3 3'UTR-driven luciferase in osteoblasts – cell-based, Clone20 osteoblasts, firefly luciferase, cherry-picked, dose response (AID 624132); format: functional;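 note: firefly luciferase luminescence from reporter carrying the Shn3 3'UTR in osteoblasts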
[8] = Shn3 3'UTR reporter signal decrease – cell-based, Clone20 osteoblasts, firefly luciferase, cherry-pick, set 2, Schnurri-3 inhibitor project, dose response (AID 720490); format: functional;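 note: actives lower the luminescence signal as inhibitors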
[9] = EF1alpha-driven Renilla reporter with control 3'UTR suppression – Clone20-Shn3RL cells, dual-Glo, cherry-pick, set 2, counter-screen for Shn3 3'UTR targeting project, dose response (AID 720724); format: functional, cell-based; details: Dual-Go Shn3RL
[10] = biological target: T1, Protein Wnt-3a (Mus musculus, UniProt P27467); experiment: antagonism of Wnt3a pathway luciferase reporter – Wnt-LIGHT cells, luminescence, selectivity assay for Gli-SUFU antagonist project, dose response (AID 651570); format: functional; details: read-out: IC50_Mean;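 note: Wnt-LIGHT reporter cells stimulated with conditioned medium from Wnt3a-producing cells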
T1 sequence (P27467 whole entry): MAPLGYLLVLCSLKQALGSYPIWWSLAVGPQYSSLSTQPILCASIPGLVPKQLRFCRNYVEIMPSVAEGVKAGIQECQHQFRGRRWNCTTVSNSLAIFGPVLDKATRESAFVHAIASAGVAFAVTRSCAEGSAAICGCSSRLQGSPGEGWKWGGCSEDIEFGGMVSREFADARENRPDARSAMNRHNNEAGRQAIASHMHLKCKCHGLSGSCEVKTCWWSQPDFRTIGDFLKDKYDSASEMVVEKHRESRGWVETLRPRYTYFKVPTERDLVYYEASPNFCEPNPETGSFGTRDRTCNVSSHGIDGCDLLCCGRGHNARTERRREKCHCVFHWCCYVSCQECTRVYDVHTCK

[11] = viability loss in HepG2 hepatoma cells – cell-based, ATP luminescence, cherry-pick, activator set 2, cytotoxicity control, dose response (AID 1053143); format: functional
[12] = viability loss in THP-1 monocytes – THP-1 cells, cytotoxicity control for Vif-APOBEC3G degradation inhibitor project, dose response (AID 1117359); format: functional; details: THP-1
[13] = HGIII-sPLA2 enzyme inhibition potency – biochemical, QFRET, IC50, dose response (AID 743457);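 note: green fluorescence rise as the enzyme cleaves BODIPY PC-A2 in liposomes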
[14] = general mammalian cell viability loss – activator set, cherry-pick, cytotoxicity control for miR-122 modulator project, dose response (AID 720690); format: functional, cell-based;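 note: HEK293T human cells scored for general mammalian cytotoxicity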
[15] = activation of miR-122 Renilla sensor silencing – cell-based, Huh7 psiCHECK-miR122, Renilla luciferase, cherry-picked, dose response (AID 651956); format: functional;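 note: huh7 hepatoma cells stably carrying a psiCHECK-2 miR-122 sensor plasmid; renilla luciferase signal reporting endogenous miR-122 activity after 48 h compound exposure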
[16] = kidney cell line viability loss – HEK293T, luminescence plate reader, powder samples, set 4, cytotoxicity control, dose response (AID 651863); format: functional, cell-based; details: HEK293
[17] = viability loss in HeLa cells – cytotoxicity control for MgcRacGAP inhibitor project, dose response (AID 624300); format: functional
[18] = biological target: T2, Small ubiquitin-related modifier 1 (Homo sapiens, UniProt P63165); experiment: SUMO1 protein interaction blockers, potency – biochemical, fluorescence polarization, uHTS hits, dose response (AID 624382); format: functional; details: read-out: IC50_Mean
T2 sequence (P63165 whole entry): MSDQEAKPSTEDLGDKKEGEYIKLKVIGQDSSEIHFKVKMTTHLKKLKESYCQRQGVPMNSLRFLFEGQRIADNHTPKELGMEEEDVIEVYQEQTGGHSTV

[19] = biological target: DNA repair protein RAD52 homolog (Homo sapiens, UniProt P43351); format: functional, biochemical
Sequence of DNA repair protein RAD52 homolog (P43351 whole entry): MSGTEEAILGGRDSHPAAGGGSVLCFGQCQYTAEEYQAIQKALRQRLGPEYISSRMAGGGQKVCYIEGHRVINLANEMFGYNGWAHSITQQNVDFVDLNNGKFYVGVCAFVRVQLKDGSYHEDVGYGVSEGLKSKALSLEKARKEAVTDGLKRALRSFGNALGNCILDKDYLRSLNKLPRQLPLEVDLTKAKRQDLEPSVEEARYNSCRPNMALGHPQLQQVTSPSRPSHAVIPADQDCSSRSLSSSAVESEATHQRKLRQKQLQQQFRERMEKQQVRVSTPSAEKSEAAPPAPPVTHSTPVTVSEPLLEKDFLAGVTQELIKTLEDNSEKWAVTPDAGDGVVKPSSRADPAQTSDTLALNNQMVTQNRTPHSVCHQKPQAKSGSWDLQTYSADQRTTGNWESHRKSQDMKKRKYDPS

[20] = tested on: SN12K1; experiment: cells; format: functional; details: Homo sapiens
[21] = biological target: T2, Small ubiquitin-related modifier 1; experiment: SUMO1 protein-protein binding blockers, potency – biochemical, FRET, dose response (AID 624383); format: functional; details: read-out: IC50_Mean
[22] = biological target: T3, Rac GTPase-activating protein 1 (Homo sapiens, UniProt Q9H0H5); experiment: blockers of MgcRacGAP-driven Rac1 GTP hydrolysis – biochemical, ADP Hunter fluorescence, primary and confirmatory, confirmation (AID 624330); format: functional
T3 sequence (Q9H0H5 whole entry): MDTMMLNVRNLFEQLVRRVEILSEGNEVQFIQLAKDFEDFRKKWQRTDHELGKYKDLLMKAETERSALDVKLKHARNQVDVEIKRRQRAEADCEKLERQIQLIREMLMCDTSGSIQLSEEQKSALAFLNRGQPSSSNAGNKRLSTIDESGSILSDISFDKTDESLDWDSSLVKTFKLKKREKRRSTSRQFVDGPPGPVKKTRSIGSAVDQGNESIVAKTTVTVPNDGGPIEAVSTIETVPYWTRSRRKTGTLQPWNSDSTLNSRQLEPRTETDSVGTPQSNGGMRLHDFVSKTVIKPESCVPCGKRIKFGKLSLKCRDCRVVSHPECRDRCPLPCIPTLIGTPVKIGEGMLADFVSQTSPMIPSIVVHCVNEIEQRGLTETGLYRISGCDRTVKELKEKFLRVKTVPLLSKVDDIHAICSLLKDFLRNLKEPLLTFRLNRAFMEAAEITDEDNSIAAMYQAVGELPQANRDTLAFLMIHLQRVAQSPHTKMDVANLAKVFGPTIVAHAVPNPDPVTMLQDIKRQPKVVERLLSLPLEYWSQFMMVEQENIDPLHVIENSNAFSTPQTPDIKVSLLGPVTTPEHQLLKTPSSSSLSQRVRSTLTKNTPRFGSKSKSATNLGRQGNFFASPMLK

[23] = tested on: HeLa; experiment: viability loss in HeLa cells – cell-based, 24 h, cherry-picked samples, cytotoxicity control, dose response (AID 504726); format: functional, Homo sapiens; details: Homo sapiens, 24 h;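 note: potency for cytotoxicity as loss of luminescence signal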
[24] = tested on: P388; experiment: cells; format: functional; details: Mus musculus
[25] = tested on: P388/ADR; experiment: cells; format: functional; details: Mus musculus
[26] = biological target: Metabotropic glutamate receptor 5 (Rattus norvegicus, UniProt P31424); experiment: Identification of a glycine sulfonamide based non-MPEP site positive allosteric potentiator (PAM) of mGlu5 (calcium_assay).; format: functional
Sequence of Metabotropic glutamate receptor 5 (P31424 whole entry): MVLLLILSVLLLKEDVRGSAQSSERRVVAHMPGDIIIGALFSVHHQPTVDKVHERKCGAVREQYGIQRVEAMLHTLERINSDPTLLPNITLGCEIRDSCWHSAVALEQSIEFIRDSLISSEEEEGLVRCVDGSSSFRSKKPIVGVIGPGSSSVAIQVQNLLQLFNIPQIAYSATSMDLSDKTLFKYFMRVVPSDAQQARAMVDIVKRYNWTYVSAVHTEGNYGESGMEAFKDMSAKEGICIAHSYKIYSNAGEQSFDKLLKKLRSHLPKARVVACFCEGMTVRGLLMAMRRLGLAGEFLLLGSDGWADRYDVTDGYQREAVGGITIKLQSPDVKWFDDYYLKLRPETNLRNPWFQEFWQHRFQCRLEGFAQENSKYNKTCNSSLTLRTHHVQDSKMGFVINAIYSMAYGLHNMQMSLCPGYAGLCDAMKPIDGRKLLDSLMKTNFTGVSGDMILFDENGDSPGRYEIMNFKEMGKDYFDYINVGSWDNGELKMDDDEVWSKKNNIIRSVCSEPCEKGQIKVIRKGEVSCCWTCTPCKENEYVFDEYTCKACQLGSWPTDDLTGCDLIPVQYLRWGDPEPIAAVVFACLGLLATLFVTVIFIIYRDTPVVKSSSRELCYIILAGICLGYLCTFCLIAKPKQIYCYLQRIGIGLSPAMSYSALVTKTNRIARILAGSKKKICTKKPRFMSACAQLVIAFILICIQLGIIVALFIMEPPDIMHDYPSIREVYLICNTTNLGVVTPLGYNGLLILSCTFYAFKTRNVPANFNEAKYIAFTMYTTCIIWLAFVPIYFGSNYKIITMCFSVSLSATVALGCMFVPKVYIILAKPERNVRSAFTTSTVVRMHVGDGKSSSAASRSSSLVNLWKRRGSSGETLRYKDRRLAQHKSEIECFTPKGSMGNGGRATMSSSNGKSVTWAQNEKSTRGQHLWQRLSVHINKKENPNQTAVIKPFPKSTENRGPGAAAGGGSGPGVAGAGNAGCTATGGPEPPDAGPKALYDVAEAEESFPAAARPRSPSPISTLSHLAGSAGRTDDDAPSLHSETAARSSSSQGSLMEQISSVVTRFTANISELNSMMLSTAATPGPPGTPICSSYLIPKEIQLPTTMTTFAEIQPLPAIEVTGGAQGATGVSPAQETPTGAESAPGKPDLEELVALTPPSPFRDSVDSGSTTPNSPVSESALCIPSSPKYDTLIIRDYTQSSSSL

[27] = T. cruzi growth inhibition in host cells, dose response, cell-based, plate reader, dry powder, set 2 (AID 652275); format: functional
[28] = biological target: T1, Protein Wnt-3a; experiment: SAR analysis of small molecule antagonists of Gli-SUFU in a Wnt3a luminescent reporter assay.; format: functional
[29] = P. falciparum Dd2 growth inhibitors, dose response, SYBR Green, cherry-picked samples (AID 1159567); format: functional, cell-based
[30] = toxicity to human hepatoma HepG2 cells – cell-based, cherry-picked samples, cytotoxicity control, dose response (AID 1159577); format: functional
[31] = viability loss in A549 lung cells – cell-based, 24 h, CellTiter-Glo luminescence, cherry-picks, cytotoxicity control, dose response (AID 1053115); format: functional; details: A549, 24 h
[32] = biological target: Muscarinic acetylcholine receptor M5 (Homo sapiens, UniProt P08912); experiment: potentiation of ACh response at human M5 – cell-based, concentration-response curve, dose response (AID 651878); format: functional
Sequence of Muscarinic acetylcholine receptor M5 (P08912 whole entry): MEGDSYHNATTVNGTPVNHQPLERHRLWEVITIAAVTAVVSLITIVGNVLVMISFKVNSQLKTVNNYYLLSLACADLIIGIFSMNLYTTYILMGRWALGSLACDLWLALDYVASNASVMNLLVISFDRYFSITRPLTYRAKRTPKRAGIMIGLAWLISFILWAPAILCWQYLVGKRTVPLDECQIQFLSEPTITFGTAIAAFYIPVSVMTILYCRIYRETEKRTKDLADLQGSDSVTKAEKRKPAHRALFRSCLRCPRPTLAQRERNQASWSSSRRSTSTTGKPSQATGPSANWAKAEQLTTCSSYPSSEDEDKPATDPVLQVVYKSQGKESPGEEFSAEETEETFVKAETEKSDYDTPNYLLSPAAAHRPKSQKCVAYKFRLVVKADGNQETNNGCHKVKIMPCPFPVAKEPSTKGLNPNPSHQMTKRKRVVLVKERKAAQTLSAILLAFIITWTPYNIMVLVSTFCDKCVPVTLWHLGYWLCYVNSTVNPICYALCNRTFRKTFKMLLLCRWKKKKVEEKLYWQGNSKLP

[33] = viability of BHK-21 cells – cell-based, secondary screen, cytotoxicity control for flavivirus guanylyltransferase probe project (AID 624078); format: functional
[34] = viability loss in CEM21 cells – cell-based, CellTiter-Glo luminescence, cherry-picked, cytotoxicity control for viral fusion inhibitor project, dose response (AID 652042); format: functional;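 note: potency for signal decrease meaning cytotoxicity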
[35] = inhibition of Env-driven cell fusion – HIV entry, plate reader, dry powder, dose response (AID 687023); format: functional, cell-based
[36] = blockers of HIV-1 ZM109 envelope-driven cell-cell fusion – HeLa effector, CEM target cells, luciferase, cherry-pick, dose response (AID 652058); format: functional, cell-based;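 note: luciferase signal from HIV-1 Env mediated cell-cell fusion of effector and target cells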
[37] = blockers of HIV-1 envelope-mediated cell-cell fusion – cherry-pick, dose response (AID 652057); format: functional, cell-based
[38] = viability loss in CEM21 cells – cell-based, plate reader, dry powder, cytotoxicity control, dose response (AID 687026); format: functional
[39] = biological target: Cytochrome P450 3A4 (Homo sapiens, UniProt P08684); details: Potency;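 note: confirmatory qHTS run detecting inhibitors and substrates of CYP3A4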
Sequence of Cytochrome P450 3A4 (P08684 whole entry): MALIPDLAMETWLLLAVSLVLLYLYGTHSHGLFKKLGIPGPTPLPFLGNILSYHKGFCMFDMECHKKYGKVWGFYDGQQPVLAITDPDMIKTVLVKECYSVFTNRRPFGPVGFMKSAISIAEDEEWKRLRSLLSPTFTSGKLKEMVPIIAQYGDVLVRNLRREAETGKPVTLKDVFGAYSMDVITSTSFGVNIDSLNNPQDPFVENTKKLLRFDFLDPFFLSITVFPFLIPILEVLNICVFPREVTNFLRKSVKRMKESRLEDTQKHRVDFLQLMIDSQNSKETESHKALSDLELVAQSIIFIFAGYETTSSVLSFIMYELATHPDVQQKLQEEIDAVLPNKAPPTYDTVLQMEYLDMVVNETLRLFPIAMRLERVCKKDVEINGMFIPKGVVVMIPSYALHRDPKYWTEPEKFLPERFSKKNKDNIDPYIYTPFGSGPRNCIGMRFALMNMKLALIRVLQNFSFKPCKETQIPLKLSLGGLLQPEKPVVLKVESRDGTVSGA

[40] = cells; format: functional, cell-based
[41] = biological target: T4, Trace amine-associated receptor 1 (Homo sapiens, UniProt Q96RJ0); experiment: Fluorescence-based cell-based high throughput dose response assay to identify agonists of the human trace amine associated receptor 1 (TAAR1).; format: functional
T4 sequence (Q96RJ0 whole entry): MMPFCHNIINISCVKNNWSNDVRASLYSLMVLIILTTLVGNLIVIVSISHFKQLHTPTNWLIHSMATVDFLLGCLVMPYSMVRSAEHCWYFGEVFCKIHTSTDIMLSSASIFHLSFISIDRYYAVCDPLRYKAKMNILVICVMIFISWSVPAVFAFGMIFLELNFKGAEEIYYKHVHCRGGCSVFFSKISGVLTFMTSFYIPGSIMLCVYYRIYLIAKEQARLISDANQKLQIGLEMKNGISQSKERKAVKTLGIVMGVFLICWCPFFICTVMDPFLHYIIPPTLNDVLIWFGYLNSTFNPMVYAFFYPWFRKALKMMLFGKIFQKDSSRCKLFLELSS

[42] = cells; format: functional, cell-based; remark: listed apart in the source
[43] = biological target: T4, Trace amine-associated receptor 1; experiment: Counterscreen for agonists of the human trace amine associated receptor 1 (hTAAR1): Fluorescence-based cell-based high throughput dose response assay to identify hTAAR1 agonist that also desensitize TAAR1 receptor response.; format: functional
[44] = anti-trypanosomal activity in BESM host cells – imaging, CA-I/72 strain, bovine embryo skeletal muscle, dry powder, dose response (AID 651885); format: functional, cell-based

Compound: COc1ccc(C#Cc2ccc3c(c2)O[C@@H](CN(C)C(C)=O)[C@@H](C)CN([C@H](C)CO)S3(=O)=O)cc1
- AC50 [1]: > 52 µM (inactive)
- AC50 [2]: 17.8 µM (active)
- AC50 [3]: 17.8 µM (active)

Compound: COc1ccc(CCNc2c3ccccc3nc3ccccc23)cc1OC
- IC50 [4]: 2.4 µM (active)

Compound: O=C(Cn1cnc2ccccc21)Nc1cccc(S(=O)(=O)N2CCCC2)c1
- AC50 [5]: 50.5 µM (active)
- AC50 [6]: 10.1 µM (active)
- AC50 [7]: 2.77 µM (active)
- AC50 [8]: 2.61 µM (active)
- AC50 [9]: 1.79 µM (active)
- IC50 [10]: 13.1 µM (active)

Compound: O=C(NCC1CC1)c1ccc2c3n(nc2c1)-c1ccccc1CO3
- AC50 [11]: 26 µM (active)
- CC50 [12]: > 40 µM (active)

Compound: O=C(NNC(=S)Nc1ccc(Br)cc1Cl)c1ccco1
- IC50 [13]: > 122 µM (inactive)

Compound: COc1ccc(C#Cc2ccc([C@H]3[C@H](CO)N4CCCCN(C(=O)Nc5ccccc5)C[C@@H]34)cc2)cc1
- AC50 [14]: 10 µM (active)
- AC50 [15]: 6 µM (active)

Compound: CC(C)OC(=O)C(C(=O)C(F)(F)F)c1cc(NS(=O)(=O)c2ccccc2)c2ccccc2c1O (stereo not given)
- AC50 [16]: 40.4 µM (active)

Compound: COc1ccc2[nH]c3c(C)c4cc[n+](C)cc4c(C)c3c2c1
- CC50 [17]: 100 µM (active)
- IC50 [18]: > 66.6 µM (inactive)
- AC50 [19]: < 0.15 µM (active)
- GI50 [20]: 0.203 µM (active)
- IC50 [21]: 9.55 µM (active)
- IC50 [22]: 24.7 µM (active)
- AC50 [23]: 65.2 µM (active)
- GI50 [24]: 0.773 µM (active)
- GI50 [25]: 55.8 µM (inactive)

Compound: CS(=O)(=O)N(CC(=O)NCC1CC1)c1cc(C(F)(F)F)ccc1Cl
- EC50 [26]: 0.298 µM

Compound: CC(C)N1C[C@H](C)[C@@H](CN(C)Cc2ccc(Oc3ccccc3)cc2)Oc2c(cccc2-c2nnc(-c3ccncc3)o2)C1=O
- AC50 [27]: 0.116 µM (active)

Compound: CCN(CC)c1cc(NC(=O)c2cccc(C#N)c2)ncn1
- IC50 [28]: > 21.8 µM (inactive)

Compound: COc1ccccc1CN1CC[C@H]2[C@H](CO)Nc3ccc(C#Cc4ccccc4)cc3[C@H]21
- AC50 [29]: 1.45 µM (active)
- AC50 [30]: 11.4 µM (active)
- AC50 [31]: > 60 µM (inactive)
- AC50 [1]: 10.2 µM (active)

Compound: O=C1C(=O)N(CCOc2ccc(Br)cc2)c2ccc(OC(F)(F)F)cc21
- EC50 [32]: 1.45 µM (active)

Compound: Cc1cc(C)c(S(=O)(=O)Nc2cc(SCC(=O)O)c(O)c3ccccc23)c(C)c1
- CC50 [33]: 9.03 µM (active)

Compound: COc1cccc(S(=O)(=O)Nc2ccc3c(c2)[C@H]2C[C@H](CC(=O)NCc4ccc(Cl)cc4)O[C@@H](CO)[C@H]2O3)c1
- AC50 [34]: 67 µM (active)
- AC50 [35]: 19.4 µM (active)
- AC50 [36]: 1.29 µM (active)
- AC50 [37]: 9.17 µM (active)
- AC50 [38]: > 70 µM (inactive)

Compound: NCC(=O)c1ccccc1 [PHENACYLAMINE HYDROCHLORIDE]
- AC50 [39]: 6.31 µM (inconclusive)
- IC50 [40]: > 29.9 µM (inactive)
- EC50 [41]: 1.08 µM (active)
- EC50 [42]: > 29.9 µM (inactive)
- IC50 [43]: 7.42 µM (active)

Compound: CC(C)N1C[C@H](C)[C@@H](CN(C)C(=O)OC(C)(C)C)Oc2c(C(=O)Nc3ccncc3)cccc2C1=O
- IC50 [44]: > 20 µM (inactive)
